In patent US12391799B2, “Peptoid polymers and methods of use” (X-Therma, Inc., priority 2017, dated 2025):
Numbered stars: 1 amine (or outer) side, 2 acyl side, 3 side chain; on linkers, the order of the positions; unused ones are H or OH. Square brackets hold non-standard residues; d marks the D form. Peptide text beside a SMILES is read from it. X1 = CC(O)CN(CC(=O)[*:2])[*:1]; N(iPr)Gly = CC(C)NCC(=O)O; Nleu = CC(C)CNCC(=O)O

Assay: Vitrification screening assay (critical EG concentration)
Assay type: physicochemical
Conditions: for Critical Ethylene Glycol Concentration: lowest EG for complete vitrification of 20 μL sample, 5 mg/mL peptoid in formulation, liquid nitrogen immersion; for EG required to permit vitrification: 20 μL sample, 5 mg/mL peptoid, formulation without peptoid needs 20% or more EG
Protocol: As another means of increasing the throughput of library analysis, a vitrification screening assay was performed to evaluate anti-icing efficacy. For these experiments the compounds named “Compound 11,” “Compound 12,” “Compound 25,” Compound 26,” “Compound 27,” “Compound 28,” “Compound 60,” “Compound 62,” “Compound 63,” “Compound 64,” “Compound 69,” “Compound 70,” “Compound 71,” “Compound 72,” “Compound 73,” “Compound 74,” “Compound 75,” “Compound 76,” “Compound 77,” “Compound 78,” “Compound 81,” “Compound 82,” “Compound 83,” “Compound 84,” and “Compound 85” were tested.
For these experiments, 20 μL samples were flash frozen by liquid immersion in liquid nitrogen. Ethylene glycol (EG) concentrations between 5% and 25% (v/v) were used. A concentration of 5 mg/mL of peptoid polymer compounds were used in formulation. Table 12 lists the lowest concentration of EG necessary to bring about complete vitrification of a 20 μL sample with peptoid polymer in formulation, referred to as the “critical EG concentration.” A sample of formulation without the presence of a peptoid polymer was only able to bring about vitrification at 20% or more EG. Peptoid polymers of interest were able to bring about vitrification within formulas containing EG when the concentration of EG was lower than 20%.

Row | SMILES | Critical Ethylene Glycol Concentration | EG required to permit vitrification
1 | CCC(C)NCC(=O)N(CC(=O)N(CC(=O)N(CC(=O)N(CC(=O)N(CC(=O)N(CC(=O)N(CC(=O)N(CC(=O)N(CC(N)=O)C(C)CC)C(C)CC)CC1CCCO1)CC1CCCO1)C(C)CC)C(C)CC)CC1CCCO1)CC1CCCO1)C(C)CC (stereo not drawn) [Compound 63, Nsb-Nsb-Ntf-Ntf-Nsb-Nsb-Ntf-Ntf-Nsb-Nsb] | 15.0% (ν/ν) | –
2 | CCC(C)NCC(=O)N(CC(=O)N(CC(=O)N(CC(=O)N(CC(=O)N(CC(=O)N(CC(=O)N(CC(=O)N(CC(=O)N(CC(=O)N(CC(=O)N(CC(=O)N(CC(=O)N(CC(=O)N(CC(=O)N(CC(=O)N(CC(=O)N(CC(=O)N(CC(=O)N(CC(=O)N(CC(=O)N(CC(N)=O)C(C)CC)C(C)CC)CC(C)O)CC(C)O)C(C)CC)C(C)CC)CC(C)O)CC(C)O)C(C)CC)C(C)CC)CC(C)O)CC(C)O)C(C)CC)C(C)CC)CC(C)O)CC(C)O)C(C)CC)C(C)CC)CC(C)O)CC(C)O)C(C)CC (stereo not drawn) [Compound 85, Nsb-Nsb-Nhp-Nhp-Nsb-Nsb-Nhp-Nhp-Nsb-Nsb-Nhp-Nhp-Nsb-Nsb-Nhp-Nhp-Nsb-Nsb-Nhp-Nhp-Nsb-Nsb] | 10.0% (ν/ν) | required significantly less EG in order to permit vitrification
3 | CCC(C)NCC(=O)N(CC(=O)N(CC(=O)N(CC(=O)N(CC(=O)N(CC(=O)N(CC(=O)N(CC(=O)N(CC(=O)N(CC(=O)N(CC(=O)N(CC(=O)N(CC(=O)N(CC(N)=O)C(C)CC)C(C)CC)CC(C)O)CC(C)O)C(C)CC)C(C)CC)CC(C)O)CC(C)O)C(C)CC)C(C)CC)CC(C)O)CC(C)O)C(C)CC (stereo not drawn) [Compound 83, Nsb-Nsb-Nhp-Nhp-Nsb-Nsb-Nhp-Nhp-Nsb-Nsb-Nhp-Nhp-Nsb-Nsb] | 10.0% (ν/ν) | required significantly less EG in order to permit vitrification
4 | CCC(C)NCC(=O)N(CC(=O)N(CC(=O)N(CC(=O)N(CC(=O)N(CC(=O)N(CC(=O)N(CC(=O)N(CC(=O)N(CC(N)=O)C(C)CC)C(C)CC)CC(C)O)CC(C)O)C(C)CC)C(C)CC)C(C)CC)CC(C)O)C(C)CC (stereo not drawn) [Compound 71, Nsb-Nsb-Nhp-Nsb-Nsb-Nsb-Nhp-Nhp-Nsb-Nsb] | 17.5% (ν/ν) | –
5 | CCC(C)NCC(=O)N(CC(=O)N(CC(=O)N(CC(=O)N(CC(=O)N(CC(=O)N(CC(=O)N(CC(=O)N(CC(=O)N(CC(=O)N(CC(=O)N(CC(=O)N(CC(=O)N(CC(=O)N(CC(=O)N(CC(=O)N(CC(=O)N(CC(N)=O)C(C)CC)C(C)CC)CC(C)O)CC(C)O)C(C)CC)C(C)CC)CC(C)O)CC(C)O)C(C)CC)C(C)CC)CC(C)O)CC(C)O)C(C)CC)C(C)CC)CC(C)O)CC(C)O)C(C)CC (stereo not drawn) [Compound 84, Nsb-Nsb-Nhp-Nhp-Nsb-Nsb-Nhp-Nhp-Nsb-Nsb-Nhp-Nhp-Nsb-Nsb-Nhp-Nhp-Nsb-Nsb] | 12.5% (ν/ν) | required significantly less EG in order to permit vitrification
6 | CC(C)CNCC(=O)N(CC(=O)N(CC(=O)N(CC(=O)N(CC(=O)N(CC(=O)N(CC(=O)N(CC(=O)N(CC(=O)N(CC(N)=O)CC(C)C)CC(C)C)CC(C)O)CC(C)O)CC(C)C)CC(C)C)CC(C)O)CC(C)O)CC(C)C (stereo not drawn) [Compound 25, Nib-Nib-Nhp-Nhp-Nib-Nib-Nhp-Nhp-Nib-Nib] (H-[Nleu][Nleu][X1][X1][Nleu][Nleu][X1][X1][Nleu][Nleu]-NH2) | 12.5% (ν/ν) | –
7 | CC(O)CN(CC(=O)N(CC(=O)N(CC(=O)N(CC(=O)N(CC(=O)N(CC(=O)N(CC(=O)N(CC(N)=O)C(C)C)C(C)C)CC(C)O)CC(C)O)C(C)C)C(C)C)CC(C)O)C(=O)CN(C(=O)CNC(C)C)C(C)C (stereo not drawn) [Compound 28, Nip-Nip-Nhp-Nhp-Nip-Nip-Nhp-Nhp-Nip-Nip] (H-[N(iPr)Gly][N(iPr)Gly][X1][X1][N(iPr)Gly][N(iPr)Gly][X1][X1][N(iPr)Gly][N(iPr)Gly]-NH2) | 15.0% (ν/ν) | –
